Data from PubChem BioAssay AID256 (DTP/NCI, 2004).
Toxic doses and inconclusive results are not listed. The calls were made as follows: active = survival T/C of 150% or more; inactive = T/C below 125% in these data.

Test system: CD2F1 mice, L1210 leukemia ip, survival T/C
Assay: NCI In Vivo Anticancer Drug Screen. Data for tumor model L1210 Leukemia (intraperitoneal) in CD2F1 (CDF1) mice
Conditions: endpoint: mean survival time, higher = longer survival
Method in brief: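 Implant tumor; dose compound or vehicle; measure endpoint in both groups; report treated divided by control.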

[1] = dose: 100.0 mg/kg/injection, schedule: Q04DX003 (ip), vehicle: saline with Tween-80
[2] = dose: 200.0 mg/kg/injection, schedule: Q04DX003 (ip), vehicle: saline with Tween-80
[3] = dose: 400.0 mg/kg/injection, schedule: Q04DX003 (ip), vehicle: saline with Tween-80
[4] = dose: 100.0 mg/kg/injection, schedule: Q01DX009 (ip), vehicle: saline with Tween-80
[5] = dose: 200.0 mg/kg/injection, schedule: Q01DX009 (ip), vehicle: saline with Tween-80
[6] = dose: 400.0 mg/kg/injection, schedule: Q01DX009 (ip), vehicle: saline with Tween-80

Measured: T/C

CC(COCc1ccccc1)COP(N)(=O)N(CCCl)CCCl (configuration not stated)
inactive: dose: 15.62 mg/kg/injection, schedule: Q01DX001 (ip), vehicle: DMSO 97 % of control | dose: 31.3 mg/kg/injection, schedule: Q01DX001 (ip), vehicle: DMSO 98 % of control | dose: 62.5 mg/kg/injection, schedule: Q01DX001 (ip), vehicle: DMSO 101 % of control | dose: 125.0 mg/kg/injection, schedule: Q01DX001 (ip), vehicle: DMSO 111 % of control | dose: 250.0 mg/kg/injection, schedule: Q01DX001 (ip), vehicle: DMSO 103 % of control | dose: 500.0 mg/kg/injection, schedule: Q01DX001 (ip), vehicle: DMSO 101 % of control

COC(=O)Nc1cccc(OC(=O)N(C(C)C)C(C)C)c1
inactive: [1] 94 % of control | [2] 97 % of control | [3] 96 % of control

O=C1c2ccccc2-c2cc([N+](=O)[O-])c(Cl)cc21
inactive: dose: 50.0 mg/kg/injection, schedule: Q04DX003 (ip), vehicle: Klucel (hydroxypropylcellulose) (HPC) 91 % of control | dose: 100.0 mg/kg/injection, schedule: Q04DX003 (ip), vehicle: Klucel (hydroxypropylcellulose) (HPC) 96 % of control | dose: 200.0 mg/kg/injection, schedule: Q04DX003 (ip), vehicle: Klucel (hydroxypropylcellulose) (HPC) 94 % of control

CCOC(=O)CCCc1ccccc1
inactive: [4] 93 % of control | [5] 95 % of control | [6] 102 % of control

COC(=O)CC(NC(=O)C(CSC(c1ccccc1)(c1ccccc1)c1ccccc1)NC(c1ccccc1)(c1ccccc1)c1ccccc1)C(=O)OC (configuration not stated)
inactive: dose: 50.0 mg/kg/injection, schedule: Q01DX009 (ip), vehicle: saline 95 % of control | dose: 100.0 mg/kg/injection, schedule: Q01DX009 (ip), vehicle: saline 92 % of control | dose: 200.0 mg/kg/injection, schedule: Q01DX009 (ip), vehicle: saline 89 % of control | dose: 400.0 mg/kg/injection, schedule: Q01DX009 (ip), vehicle: saline 91 % of control

Cc1[nH]nc2[nH]cnc(=S)c12
inactive: dose: 12.5 mg/kg/injection, schedule: Q01DX005 (ip), vehicle: saline with Tween-80 90 % of control | dose: 25.0 mg/kg/injection, schedule: Q01DX005 (ip), vehicle: saline with Tween-80 88 % of control | dose: 50.0 mg/kg/injection, schedule: Q01DX005 (ip), vehicle: saline with Tween-80 87 % of control | dose: 100.0 mg/kg/injection, schedule: Q01DX005 (ip), vehicle: saline with Tween-80 94 % of control | dose: 200.0 mg/kg/injection, schedule: Q01DX005 (ip), vehicle: saline with Tween-80 96 % of control

OC1(CSc2ccccc2)CCCCC1
inactive: dose: 12.5 mg/kg/injection, schedule: Q01DX009 (ip), vehicle: saline with Tween-80 98 % of control | dose: 25.0 mg/kg/injection, schedule: Q01DX009 (ip), vehicle: saline with Tween-80 101 % of control | dose: 50.0 mg/kg/injection, schedule: Q01DX009 (ip), vehicle: saline with Tween-80 102 % of control | [4] 102 % of control | [5] 104 % of control | [6] 101 % of control

CCOc1ccc(/C=C/C(=O)c2ccc(C)cc2)cc1OCC
inactive: dose: 37.5 mg/kg/injection, schedule: Q01DX009 (ip), vehicle: saline 98 % of control | dose: 75.0 mg/kg/injection, schedule: Q01DX009 (ip), vehicle: saline 98 % of control | dose: 150.0 mg/kg/injection, schedule: Q01DX009 (ip), vehicle: saline 113 % of control

CC(C)(C)C1=CC(C(C)(C)C)CCC1=O (configuration not stated)
inactive: dose: 100.0 mg/kg/injection, schedule: Q01DX009 (ip), vehicle: acetone 94 % of control | dose: 200.0 mg/kg/injection, schedule: Q01DX009 (ip), vehicle: acetone 94 % of control

Cc1cc(F)ccc1NC(=O)Nc1ccc(F)cc1C
inactive: dose: 25.0 mg/kg/injection, schedule: Q04DX002 (ip), vehicle: saline with Tween-80 87 % of control | dose: 50.0 mg/kg/injection, schedule: Q04DX002 (ip), vehicle: saline with Tween-80 87 % of control

COc1ccc(CCNC(=O)Cc2ccc3cc(OC)c(OC)cc3c2)cc1OC
inactive: [4] 91 % of control | [1] 95 % of control | [5] 89 % of control | [2] 100 % of control

CC(=O)c1ccc2c(c1)Cc1cc(C(C)=O)ccc1-2
inactive: dose: 100.0 mg/kg/injection, schedule: Q04DX003 (ip), vehicle: saline sonified 96 % of control | dose: 200.0 mg/kg/injection, schedule: Q04DX003 (ip), vehicle: saline sonified 93 % of control | dose: 400.0 mg/kg/injection, schedule: Q04DX003 (ip), vehicle: saline sonified 98 % of control

Nc1ncnc2c1c1c(=S)[nH]c(=O)[nH]c1n2C1OC(CO)C(O)C1O (configuration not stated)
inactive: dose: 25.0 mg/kg/injection, schedule: Q01DX005 (ip), vehicle: distilled water + Tween-80 101 % of control | dose: 50.0 mg/kg/injection, schedule: Q01DX005 (ip), vehicle: distilled water + Tween-80 106 % of control | dose: 100.0 mg/kg/injection, schedule: Q01DX005 (ip), vehicle: distilled water + Tween-80 104 % of control

CCOC(=O)N1C(C(=O)c2ccc(C)cc2)N(C2CCCCC2)C(c2ccccc2)N1C(=O)OCC (configuration not stated)
inactive: [4] 90 % of control | [1] 97 % of control | [5] 93 % of control | [2] 92 % of control | [6] 90 % of control | [3] 93 % of control

CNC[C@@H](O)c1ccc(O)c(O)c1
inactive: dose: 1.0 mg/kg/injection, schedule: Q01DX001 (ip), vehicle: saline 97 % of control | dose: 2.0 mg/kg/injection, schedule: Q01DX001 (ip), vehicle: saline 100 % of control | dose: 2.5 mg/kg/injection, schedule: Q01DX009 (ip), vehicle: saline 104 % of control | dose: 4.0 mg/kg/injection, schedule: Q01DX001 (ip), vehicle: saline 107 % of control | dose: 5.0 mg/kg/injection, schedule: Q01DX009 (ip), vehicle: saline 104 % of control | dose: 8.0 mg/kg/injection, schedule: Q01DX001 (ip), vehicle: saline 103 % of control

COC1=C(Br)[C@H](O)[C@](O)(CC#N)C=C1Br
inactive: dose: 6.25 mg/kg/injection, schedule: Q01DX009 (ip), vehicle: saline 113 % of control | dose: 12.5 mg/kg/injection, schedule: Q01DX009 (ip), vehicle: saline 111 % of control | dose: 17.5 mg/kg/injection, schedule: Q01DX009 (ip), vehicle: Klucel (hydroxypropylcellulose) (HPC) 98 % of control | dose: 25.0 mg/kg/injection, schedule: Q01DX009 (ip), vehicle: saline 117 % of control | dose: 35.0 mg/kg/injection, schedule: Q01DX009 (ip), vehicle: Klucel (hydroxypropylcellulose) (HPC) 100 % of control | dose: 70.0 mg/kg/injection, schedule: Q01DX009 (ip), vehicle: Klucel (hydroxypropylcellulose) (HPC) 102 % of control

CC(C)(O)C(Cl)S(=O)c1ccccc1 (configuration not stated)
inactive: dose: 37.5 mg/kg/injection, schedule: Q04DX003 (ip), vehicle: saline with Tween-80 100 % of control | dose: 75.0 mg/kg/injection, schedule: Q04DX003 (ip), vehicle: saline with Tween-80 100 % of control | dose: 85.0 mg/kg/injection, schedule: Q04DX002 (ip), vehicle: saline with Tween-80 88 % of control | dose: 150.0 mg/kg/injection, schedule: Q04DX003 (ip), vehicle: saline with Tween-80 103 % of control | dose: 190.0 mg/kg/injection, schedule: Q04DX002 (ip), vehicle: saline with Tween-80 90 % of control | dose: 300.0 mg/kg/injection, schedule: Q04DX003 (ip), vehicle: saline with Tween-80 102 % of control

O=C(C=C(C(F)(F)F)C(F)(F)F)c1ccc(Cl)c2ccccc12
inactive: [1] 105 % of control
